Measured values taken from PubChem BioAssay (NCI).
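1) Cells in 96-well plates. 2) Compound, 48 h, 5 concentrations. 3) Linear interpolation between surrounding doses. 4) Unreached endpoint = highest concentration. Here, GI50 denotes the concentration required for 50% inhibition of growth. TGI: concentration producing complete growth inhibition.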

Tests used:
Test in all cases: DTP human tumour cell line panel, 48 h
A498 renal = system: A498 renal
HOP-62 NSCLC = system: HOP-62 NSCLC
MDA-MB-231 breast = system: MDA-MB-231 breast
NCI-H522 lung = system: NCI-H522 lung
OVCAR-3 ovarian = system: OVCAR-3 ovarian
SK-OV-3 ovarian = system: SK-OV-3 ovarian
T-47D breast = system: T-47D breast
UO-31 renal = system: UO-31 renal

Row | SMILES | GI50 (A498 renal) [µM] | TGI (A498 renal) [µM] | GI50 (HOP-62 NSCLC) [µM] | TGI (HOP-62 NSCLC) [µM] | GI50 (MDA-MB-231 breast) [µM] | TGI (MDA-MB-231 breast) [µM] | GI50 (NCI-H522 lung) [µM] | TGI (NCI-H522 lung) [µM] | GI50 (OVCAR-3 ovarian) [µM] | TGI (OVCAR-3 ovarian) [µM] | GI50 (SK-OV-3 ovarian) [µM] | TGI (SK-OV-3 ovarian) [µM] | GI50 (T-47D breast) [µM] | TGI (T-47D breast) [µM] | GI50 (UO-31 renal) [µM] | TGI (UO-31 renal) [µM]
1 | O=[N+]([O-])c1ccc(N2CCOCC2)c2c1no[n+]2[O-] | 1.17 | 3.2 | 1.61 | 6.58 | 2.7 | 15.6 | 0.649 | 2.33 | 1.4 | 3.15 | 1.43 | 4.68 | 1.14 | 4.58 | 1.42 | 5.07
2 | N#CCCN1C/C(=C/c2ccc(Cl)cc2)C(=O)/C(=C/c2ccc(Cl)cc2)C1 | 1.59 | 3.11 | 0.516 | 2.94 | 2.01 | 7.44 | 1.77 | 3.41 | 1.2 | 2.5 | 2.23 | 5.4 | 3.12 | 13.8 | 1.39 | 2.77
3 | C(=N/N(Cc1ccccc1)Cc1ccccc1)/c1ccccc1 | 94.9 | > 100 | > 100 | > 100 | > 100 | > 100 | > 100 | > 100 | > 100 | > 100 | > 100 | > 100 | 72.4 | > 100 | > 100 | > 100
4 | O=C1c2sccc2-c2cccc3cccc1c23 (tested in a mixture with another compound) | – | – | – | > 100 | – | 54.3 | – | 57.1 | – | 67.8 | – | > 100 | – | 28.2 | – | 78.3
5 | OC(C#Cc1ccccc1)(c1ccccc1)c1ccccc1 | – | 83.4 | – | > 100 | – | > 100 | – | > 100 | – | 85.3 | – | > 100 | – | 78.1 | – | > 100
6 | CCCCCCNC(=O)Oc1ccc(/C(=C(\C)c2ccc(Cl)cc2)c2ccc(OCCN3CCCCC3)cc2)cc1 | – | – | 5.28 | 11.9 | 5.35 | 10.2 | 6.14 | 13 | 4.39 | 9.42 | 5.42 | 13.6 | 0.722 | 7.11 | 2.14 | 6.57
7 | C=CCN1CC(=O)N2[C@@H](Cc3ccc(O)cc3F)C(=O)N(Cc3cccc(N4CC(N5CCN(CC)CC5)C4)n3)C[C@@H]2N1C(=O)NCc1ccccc1 | < 0.0118 | 0.0666 | 0.0562 | > 100 | 0.0216 | 0.139 | 0.0284 | – | 0.0328 | > 100 | 0.0345 | 0.244 | 0.0339 | > 100 | 0.919 | > 100
8 | COc1ccc(/C=C(\C#N)n2nnc3c(F)cccc32)cc1 | 0.22 | 1.04 | 0.621 | > 83.1 | 0.551 | 3.68 | 0.182 | – | 0.283 | 2.53 | 1.05 | > 90 | 1.05 | > 100 | 0.573 | > 100
9 | COc1cc2nc(-c3cc(F)ccc3O)nc(N[C@@H]3CNC[C@H]3C(C)(C)O)c2cc1OC | 1.12 | 2.6 | 1.26 | 2.76 | 1.23 | 2.8 | 1.67 | 3.11 | 1.9 | 3.62 | 2.29 | 4.72 | 2.06 | 3.98 | 1.56 | 3.21
10 | Cn1cc(C2=C(c3cccc(OC[C@@H](O)CO)c3)C(=O)NC2=O)c2ccccc21 | 0.656 | > 5.77 | > 25 | > 25 | > 25 | > 25 | 24.8 | > 25 | 11.2 | > 25 | > 18.3 | > 25 | > 22.9 | > 25 | > 19.1 | > 25
11 | Cc1cc[n+]2c(c1)-c1cc(C)cc[n+]1CC2 | – | > 100 | – | > 100 | – | > 100 | – | > 92.9 | – | > 100 | – | > 100 | – | > 100 | – | > 100
